Results on 22 compounds are retold here after patent publication US12643887B2, “Heterocyclic derivatives with cardiomyocyte proliferation activity for treatment of heart diseases” (Tongji University, priority 2019, dated 2026).

One experiment addresses T1, human DYRK1A (Homo sapiens, UniProt Q13627).
T1 construct: Recombinant full-length DYRK1A (expressed in E. Coli cells with an N-terminal GST tag); GST (N); purchased SignalChem D09-10G; host or cells: E. coli
The experiment is described as follows: DYRK1A enzyme assay (ADP-Glo). To be noted: ADP-Glo, ATP 60 μM; read-out: DYRK1A IC50. The experiment is classed as biochemical. As to the method: The ability of compounds to inhibit human DYRK1A kinase activities was determined using a commercially available ADP-Glo™ Kinase Assay kit (Promega, Cat #V9102) according to the manufacturer's protocol.
Recombinant full-length DYRK1A (expressed in E. Coli cells with an N-terminal GST tag) was purchased from SignalChem (Cat #D09-10G). The DYRK substrate peptide (DYRKtide, sequence: […]) was purchased from SignalChem (Cat #D96-58). This assay, run in a 384-well plate format, is a generic method for measuring kinase activities using an ADP-Glo Kinase Assay Kit. The basic assay procedure involves two steps: (1) Enzymatic step: inhibitors are incubated with the kinase and then ATP (included in the ADP-Glo Kinase Assay Kit) and the DYRKtide are added to start the enzymatic reaction; (2) Detection step: after the kinase reaction, first ADP-Glo™ Reagent is added to terminate the kinase reaction and deplete the remaining ATP. Second, the Kinase Detection Reagent is added to simultaneously convert ADP to ATP and allow the newly synthesized ATP to be measured using a luciferase/luciferin reaction. The light generated is measured using a luminometer.
Briefly, DYRK1A (3 nM) in the enzymatic buffer solutions (40 mM Tris, pH 7.5, 20 mM MgCl2, 0.1 mg/ml BSA, 50 μM DTT) were mixed with various concentrations of inhibitors (dissolved in 100% DMSO). These solutions were incubated for 30 minutes at 25° C., and subsequently a mixture of substrate peptide and ATP was added with the final peptide and ATP concentrations at 20 μM and 60 μM, respectively. The final reaction mixture of enzyme-substrate-ATP-compound was incubated for 60 minutes at 25° C.
(§1) Afterwards ADP-Glo™ Reagent was added and the mixture was incubated at 25° C. for 60 minutes. Then Kinase Detection Reagent was added and the final mixture was incubated at 25° C. for 60 minutes. The luminescence signal of the final solution was measured on an Envision instrument (PerkinElmer). The percent (%) inhibition at each concentration of a compound is calculated relative to the luminescence signal in the Max and Min control wells contained within each assay plate. […] The concentrations and percent inhibition values for a test compound are plotted and the concentration of the compound required to achieve 50% inhibition (IC50) is determined with a four-parameter logistic dose response equation.
(In ADP-Glo the light output rises with the ADP produced.)

The target in the next experiment is T2, human GSK3 beta (Homo sapiens, UniProt P49841).
T2 construct: Recombinant full-length human GSK3 beta (expressed in Sf9 insect cells with an N-terminal His tag); His (N); purchased SignalChem G09-10H; host or cells: Sf9 insect cells
Description: GSK3 beta enzyme assay (ADP-Glo). Type of experiment: biochemical. To be noted: ATP 25 μM, read-out: GSK3b IC50. The procedure:
1. GSK3 Beta Enzyme Assay
The ability of compounds to inhibit human GSK3 beta kinase activities was determined using a commercially available ADP-Glo™ Kinase Assay kit (Promega, Cat #V9102) according to the manufacturer's protocol. The ADP-Glo™ Kinase Assay is a luminescent ADP detection assay that provides a universal, homogeneous, high-throughput screening method to measure kinase activity by quantifying the amount of ADP produced during a kinase reaction. The ADP-Glo™ Kinase Assay can be used to monitor the activity of virtually any ADP-generating enzymes (e.g., kinases or ATPases).
Recombinant full-length human GSK3 beta (expressed in Sf9 insect cells with an N-terminal His tag) was purchased from SignalChem (Cat #G09-10H). The GSK3 substrate peptide (sequence: […](pS)EDEEE) was purchased from SignalChem (Cat #G50-58). This assay, run in a 384-well plate format, is a generic method for measuring kinase activities using an ADP-Glo Kinase Assay Kit. The basic assay procedure involves two steps: (1) Enzymatic step: inhibitors are incubated with the kinase and then ATP (included in the ADP-Glo Kinase Assay Kit) and the GSK3 substrate peptide are added to start the enzymatic reaction; (2) Detection step: after the kinase reaction, first ADP-Glo™ Reagent is added to terminate the kinase reaction and deplete the remaining ATP. Second, the Kinase Detection Reagent is added to simultaneously convert ADP to ATP and allow the newly synthesized ATP to be measured using a luciferase/luciferin reaction. The light generated is measured using a luminometer.
Briefly, GSK3 beta (4 nM) in the enzymatic buffer solutions (40 mM Tris, pH 7.5, 20 mM MgCl2, 0.1 mg/ml BSA, 50 μM DTT) were mixed with various concentrations of inhibitors (dissolved in 100% DMSO). These solutions were incubated for 30 minutes at 25° C., and subsequently a mixture of substrate peptide and ATP was added with the final peptide and ATP concentrations at 13 μM and 25 μM, respectively. The final reaction mixture of enzyme-substrate-ATP-compound was incubated for 60 minutes at 25° C.
as §1

As a reminder, the IC50 is the concentration needed to halve the response being measured.

T2 sequence (P49841 whole entry): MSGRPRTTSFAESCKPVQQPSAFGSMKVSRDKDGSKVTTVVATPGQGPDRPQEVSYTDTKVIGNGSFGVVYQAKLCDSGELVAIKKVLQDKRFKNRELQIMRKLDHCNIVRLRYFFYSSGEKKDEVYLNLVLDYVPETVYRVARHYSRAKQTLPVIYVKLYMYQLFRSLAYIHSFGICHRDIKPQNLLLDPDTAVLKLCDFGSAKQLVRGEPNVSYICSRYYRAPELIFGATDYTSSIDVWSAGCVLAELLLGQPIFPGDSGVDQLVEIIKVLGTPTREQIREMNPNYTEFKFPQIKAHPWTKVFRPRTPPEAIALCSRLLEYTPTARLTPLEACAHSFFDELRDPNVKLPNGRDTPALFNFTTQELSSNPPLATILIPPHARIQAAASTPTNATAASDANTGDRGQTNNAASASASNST

On to `O=C1NC(N(CC2CC2)c2ccccc2)=N/C1=C\c1ccc2c(c1)OCO2` [Example 10, (Z)-5-(benzo[d][1,3]dioxol-5-ylmethylene)-2-((cyclopropylmethyl)(phenyl)amino)-3,5-dihydro-4H-imidazol-4-one], for which the IC50 at human DYRK1A was 0.1 to 1 µM; on human GSK3 beta, over 10 µM.
In the same order, the values of `CN(CC1CC1)C1=N/C(=C\c2ccc3c(c2)OCO3)C(=O)N1` [Example 11, (Z)-5-(benzo[d][1,3]dioxol-5-ylmethylene)-2-((cyclopropylmethyl)(methyl)amino)-3,5-dihydro-4H-imidazol-4-one] are 0.1 to 1 µM and over 10 µM.
For `COc1ccc(N(C)C2=N/C(=C\c3ccc4c(c3)OCO4)C(=O)N2)cc1` [Example 12, (Z)-5-(benzo[d][1,3]dioxol-5-ylmethylene)-2-((4-methoxyphenyl)(methyl)amino)-3,5-dihydro-4H-imidazol-4-one], the IC50 at human DYRK1A was 0.1 to 1 µM; on human GSK3 beta it was over 10 µM.
In the same order, the values of `O=C1NC(N(CCO)c2ccccc2)=N/C1=C\c1ccc2c(c1)OCO2` [Example 13, (Z)-5-(benzo[d][1,3]dioxol-5-ylmethylene)-2-((2-hydroxyethyl)(phenyl)amino)-3,5-dihydro-4H-imidazol-4-one] are 0.1 to 1 µM and 1 to 10 µM.
Regarding `O=C1NC(Nc2ccccc2)=N/C1=C\c1ccc2scnc2c1` [Example 14, (Z)-5-(benzo[d]thiazol-5-ylmethylene)-2-(phenylamino)-3,5-dihydro-4H-imidazol-4-one], the IC50 at human DYRK1A and at human GSK3 beta was over 10 µM each time.
Turning to `O=C1NC(Nc2ccccc2)=N/C1=C\c1cncs1` [Example 15, (Z)-2-(phenylamino)-5-(thiazol-5-ylmethylene)-3,5-dihydro-4H-imidazol-4-one], the IC50 on human DYRK1A and at human GSK3 beta was over 10 µM throughout.
For the compound `O=C1NC(Nc2ccccc2)=N/C1=C\c1ccc2nccnc2c1` [Example 16, (Z)-2-(phenylamino)-5-(quinoxalin-6-ylmethylene)-3,5-dihydro-4H-imidazol-4-one], the IC50 at human DYRK1A is under 0.1 µM; at human GSK3 beta, 1 to 10 µM.
Consider `CN(C1=N/C(=C\c2ccc3c(c2)OC(F)(F)O3)C(=O)N1)c1ccccc1` [Example 17, (Z)-5-((2,2-difluorobenzo[d][1,3]dioxol-5-yl)methylene)-2-(methyl(phenyl)amino)-3,5-dihydro-4H-imidazol-4-one], for which the IC50 on human DYRK1A and on human GSK3 beta was over 10 µM each time.
Turning to `CN(C1=N/C(=C\c2ccc3c(c2)OCO3)C(=O)N1)c1cccnc1` [Example 18, (Z)-5-(benzo[d][1,3]dioxol-5-ylmethylene)-2-(methyl(pyridin-3-yl)amino)-3,5-dihydro-4H-imidazol-4-one], the IC50 on human DYRK1A is 0.1 to 1 µM; on human GSK3 beta, over 10 µM.
Take `CN(CC1CC1)C1=N/C(=C\c2ccc3c(c2)OCCO3)C(=O)N1` [Example 19, (Z)-2-((cyclopropylmethyl)(methyl)amino)-5-((2,3-dihydrobenzo[b][1,4]dioxin-6-yl)methylene)-3,5-di hydro-4H-imidazol-4-one]: the figures for the half-maximal inhibitory concentration (IC50) on human DYRK1A and on human GSK3 beta were 0.1 to 1 µM and over 10 µM, respectively.
With `CN(CCN1CCOCC1)C1=N/C(=C\c2ccc3c(c2)OCO3)C(=O)N1` [Example 20, (Z)-5-(benzo[d][1,3]dioxol-5-ylmethylene)-2-(methyl(2-morpholinoethyl)amino)-3,5-dihydro-4H-imidazol-4-one], the values for the IC50 at human DYRK1A and at human GSK3 beta were 0.1 to 1 µM and 1 to 10 µM, respectively.
`COc1ccccc1N(C)C1=N/C(=C\c2ccc3c(c2)OCO3)C(=O)N1` [Example 21, (Z)-5-(benzo[d][1,3]dioxol-5-ylmethylene)-2-((2-methoxyphenyl)(methyl)amino)-3,5-dihydro-4H-imidazol-4-one]: the IC50 is 0.1 to 1 µM at human DYRK1A and over 10 µM on human GSK3 beta.
For `O=C1NC(N(Cc2ccccc2)c2ccccc2)=N/C1=C\c1ccc2c(c1)OCO2` [Example 22, (Z)-5-(benzo[d][1,3]dioxol-5-ylmethylene)-2-(benzyl(phenyl)amino)-3,5-dihydro-4H-imidazol-4-one], in that order: over 10 µM and over 10 µM.
Take `CN(Cc1ccccc1)C1=N/C(=C\c2ccc3c(c2)OCO3)C(=O)N1` [Example 23, (Z)-5-(benzo[d][1,3]dioxol-5-ylmethylene)-2-(benzyl(methyl)amino)-3,5-dihydro-4H-imidazol-4-one]: the IC50 on human DYRK1A is 0.1 to 1 µM; on human GSK3 beta, over 10 µM.
In the case of `CN(C1=N/C(=C\c2ccc3ncsc3c2)C(=O)N1)c1ccc(Cl)cc1` [Example 24, (Z)-5-(benzo[d]thiazol-6-ylmethylene)-2-((4-chlorophenyl)(methyl)amino)-3,5-dihydro-4H-imidazol-4-one], the figures for the IC50 at human DYRK1A and at human GSK3 beta were 0.1 to 1 µM and over 10 µM, respectively.
Take `O=C1NC(Nc2ccccc2)=N/C1=C\c1ccc2[nH]cnc2c1` [Example 26, (Z)-5-((1H-benzo[d]imidazol-5-yl)methylene)-2-(phenylamino)-3,5-dihydro-4H-imidazol-4-one]: the values for the IC50 at human DYRK1A and at human GSK3 beta were under 0.1 µM and 0.1 to 1 µM, respectively.
In the case of `O=C(O)CCN(C1=N/C(=C\c2ccc3c(c2)OCO3)C(=O)N1)c1ccccc1` [Example 27, (Z)-3-((4-(benzo[d][1,3]dioxol-5-ylmethylene)-5-oxo-4,5-dihydro-1H-imidazol-2-yl)(phenyl)amino)propanoic acid], the IC50 was 1 to 10 µM at human DYRK1A and over 10 µM at human GSK3 beta.
With `CN(Cc1ccccc1)C1=N/C(=C\c2ccc3ncsc3c2)C(=O)N1` [Example 28, (Z)-5-(benzo[d]thiazol-6-ylmethylene)-2-(benzyl(methyl)amino)-3,5-dihydro-4H-imidazol-4-one], the figures for the IC50 on human DYRK1A and at human GSK3 beta were 0.1 to 1 µM and 1 to 10 µM, respectively.
As for `O=C1NC(NCCN2CCOCC2)=N/C1=C\c1ccc2ncsc2c1` [Example 29, (Z)-5-(benzo[d]thiazol-6-ylmethylene)-2-((2-morpholinoethyl)amino)-3,5-dihydro-4H-imidazol-4-one], the IC50 is 0.1 to 1 µM on human DYRK1A and 1 to 10 µM on human GSK3 beta.
Turning to `CN(C1=N/C(=C\c2ccc3[nH]cnc3c2)C(=O)N1)c1ccccc1` [Example 30, (Z)-5-((1H-benzo[d]imidazol-5-yl)methylene)-2-(methyl(phenyl)amino)-3,5-dihydro-4H-imidazol-4-one], the IC50 on human DYRK1A is 1 to 10 µM; at human GSK3 beta, over 10 µM.
Turning to `CN(CCN1CCOCC1)C1=N/C(=C\c2ccc3ncsc3c2)C(=O)N1` [Example 32, (Z)-5-(benzo[d]thiazol-6-ylmethylene)-2-(methyl(2-morpholinoethyl)amino)-3,5-dihydro-4H-imidazol-4-one], the IC50 on human DYRK1A and at human GSK3 beta was 1 to 10 µM throughout.
For the compound `CN(CC1CC1)C1=N/C(=C\c2ccc3ncsc3c2)C(=O)N1` [Example 33, (Z)-5-(benzo[d]thiazol-6-ylmethylene)-2-((cyclopropylmethyl)(methyl)amino)-3,5-dihydro-4H-imidazol-4-one], the results for the IC50 at human DYRK1A and at human GSK3 beta were 1 to 10 µM and over 10 µM, respectively.
